Test results published in paper PMC12888861, “Antibacterial activity of enmetazobactam against Acinetobacter spp.: a molecular dissection of mechanism of action and resistance determinants” (Antimicrobial Agents and Chemotherapy, 2025).
Like-named read-outs stand apart in the source and are kept apart here.

Key:
[1] = test system: A. baumannii ATCC 19606 cells; test: Cell morphology assay, bright-field microscopy; format: cell-based, Acinetobacter baumannii; conditions: A. baumannii ATCC 19606, overnight exposure at 1× MIC
Method: In order to confirm the involvement of PBPs as targets of enmetazobactam, cell morphology assays involving exposure to enmetazobactam and sulbactam were performed following the methodology described in Supplementary materials and methods.
To confirm the involvement of PBPs as targets of enmetazobactam, the cellular morphology of A. baumannii ATCC 19606 reference strain was analyzed after exposure to the compound at different concentrations. Bright-field microscopy was used to monitor the cell morphology. […] For microscopic visualization, aliquots of each sample were obtained, stained with crystal violet solution and observed using an Olympus BX61 microscope (Olympus).
Changes in cell morphology were determined on the basis of alterations in septal integrity, abnormal elongation, spheroplast formation and filamentation, patterns previously associated with the selective inhibition of PBP1, PBP2 and PBP3 in Gram-negative bacilli. Specifically, PBP1 inhibition has been linked to cell lysis, PBP2 inhibition has been linked to spherification, and PBP3 inhibition to defective cell division and filament formation (1, 2). The results were qualitatively compared across different treatments to infer the potential selectivity of enmetazobactam for specific PBPs.

[2] = test system: A. non-baumannii isolates (n = 87); test: MIC, broth microdilution (EUCAST), A. non-baumannii isolates; format: cell-based, Acinetobacter spp. (non-baumannii); conditions: for MIC: in combinations ETZ fixed at 8 mg/L
From the text: The bacterial strains used in this study comprised 208 clinical isolates from the Spanish National Acinetobacter spp. 2020 Multicenter Collection, which was previously characterized in detail by our research group, including whole-genome sequencing, phylogenetics studies, clonal dynamics, and resistance mechanisms ([2], [29]). Additionally, a collection of A. baumannii ATCC 17978 transformants coding the blaOXA-23, blaOXA-24/40, blaOXA-51, blaOXA-58, blaOXA-143, and blaOXA-201 genes, previously constructed and described by our group ([30]), was used to determine the activity of enmetazobactam against strains carrying the main CHDLs of A. baumannii.
The antimicrobial susceptibility of the 208 Acinetobacter spp. isolates was assessed using the broth microdilution method, as described in the European Committee on Antimicrobial Susceptibility Testing (EUCAST) v.15 guidelines (http://www.eucast.org/clinical_breakpoints). […] MICs for enmetazobactam alone were assessed as well. […] Subsequently, MIC testing was also conducted with a collection of A. baumannii ATCC 17978 transformants expressing clinically relevant OXA-like carbapenemase genes.
The A. baumannii ATCC 19606 strain was used as the reference strain in all susceptibility experiments, in duplicate assays. Antibiotics were purchased from Sigma-Aldrich, except enmetazobactam and durlobactam, which were obtained from Advanz Pharma and MedChemExpress, respectively.

What does the source list for CC1(C)[C@H](C(=O)O)N2C(=O)C[C@H]2S1(=O)=O [sulbactam]?
cell morphology [1]: long filaments; MIC distribution 0.12 [2]: 2.3; MIC distribution 0.25 [2]: 8.0; MIC distribution 0.5 [2]: 44.8; MIC distribution 1 [2]: 82.8; MIC distribution 2 [2]: 97.7; MIC distribution 4 [2]: 100; MIC distribution 8 [2]: 100; MIC distribution 16 [2]: 100; MIC distribution 32 [2]: 100; MIC distribution ≤0.06 [2]: 1.1; MIC ([2]; Acinetobacter baylyi, isolate NO-Ab27, Acinetobacter baylyi, read-out: MIC): 1 µg/mL; MIC ([2]; Acinetobacter beijerinckii, isolate NO-Ab122, Acinetobacter beijerinckii, read-out: MIC): 2 µg/mL; MIC ([2]; Acinetobacter bereziniae, isolate NO-Ab70, Acinetobacter bereziniae, read-out: MIC): 0.5 µg/mL; MIC ([2]; Acinetobacter bereziniae, isolate NO-Ab84, Acinetobacter bereziniae, read-out: MIC): 1 µg/mL; MIC ([2]; Acinetobacter bereziniae, isolate NO-Ab104, Acinetobacter bereziniae, read-out: MIC): 0.5 µg/mL; MIC ([2]; Acinetobacter bereziniae, isolate NO-Ab114, Acinetobacter bereziniae, read-out: MIC): 1 µg/mL; MIC ([2]; Acinetobacter bereziniae, isolate NO-Ab115, Acinetobacter bereziniae, read-out: MIC): 1 µg/mL; MIC ([2]; Acinetobacter bereziniae, isolate NO-Ab116, Acinetobacter bereziniae, read-out: MIC): 0.5 µg/mL; MIC ([2]; Acinetobacter bereziniae, isolate NO-Ab117, Acinetobacter bereziniae, read-out: MIC): 1 µg/mL; MIC ([2]; Acinetobacter bereziniae, isolate NO-Ab129, Acinetobacter bereziniae, read-out: MIC): 1 µg/mL; MIC ([2]; Acinetobacter bereziniae, isolate NO-Ab156, Acinetobacter bereziniae, read-out: MIC): 1 µg/mL; MIC ([2]; Acinetobacter calcoaceticus, isolate NO-Ab85, Acinetobacter calcoaceticus, read-out: MIC): 2 µg/mL; MIC ([2]; Acinetobacter calcoaceticus, isolate NO-Ab94, Acinetobacter calcoaceticus, read-out: MIC): 2 µg/mL; MIC ([2]; Acinetobacter calcoaceticus, isolate NO-Ab108, Acinetobacter calcoaceticus, read-out: MIC): 4 µg/mL; MIC ([2]; Acinetobacter calcoaceticus, isolate NO-Ab161, Acinetobacter calcoaceticus, read-out: MIC): 4 µg/mL; MIC ([2]; Acinetobacter calcoaceticus, isolate NO-Ab198, Acinetobacter calcoaceticus, read-out: MIC): 2 µg/mL; MIC ([2]; Acinetobacter calcoaceticus, isolate NO-Ab205, Acinetobacter calcoaceticus, read-out: MIC): 2 µg/mL; MIC ([2]; Acinetobacter calcoaceticus, isolate NO-Ab211, Acinetobacter calcoaceticus, read-out: MIC): 1 µg/mL; MIC ([2]; Acinetobacter courvalinii, isolate NO-Ab216, Acinetobacter courvalinii, read-out: MIC): 0.5 µg/mL; MIC ([2]; Acinetobacter dispersus, isolate NO-Ab2, Acinetobacter dispersus, read-out: MIC): 0.5 µg/mL; MIC ([2]; Acinetobacter guillouiae, isolate NO-Ab69, Acinetobacter guillouiae, read-out: MIC): 1 µg/mL; MIC ([2]; Acinetobacter guillouiae, isolate NO-Ab74, Acinetobacter guillouiae, read-out: MIC): 0.5 µg/mL; MIC ([2]; Acinetobacter haemolyticus, isolate NO-Ab92, Acinetobacter haemolyticus): 0.5 µg/mL; MIC ([2]; Acinetobacter haemolyticus, isolate NO-Ab177, Acinetobacter haemolyticus): 0.5 µg/mL; MIC ([2]; Acinetobacter haemolyticus, isolate NO-Ab217, Acinetobacter haemolyticus): 0.25 µg/mL; MIC ([2]; Acinetobacter johnsonii, isolate NO-Ab101, Acinetobacter johnsonii, read-out: MIC): 1 µg/mL; MIC ([2]; Acinetobacter junii, isolate NO-Ab76, Acinetobacter junii, read-out: MIC): 0.5 µg/mL; MIC ([2]; Acinetobacter junii, isolate NO-Ab77, Acinetobacter junii, OXA-24/40, read-out: MIC): 0.5 µg/mL; MIC ([2]; Acinetobacter lactucae, isolate NO-Ab60, Acinetobacter dijkshoorniae, read-out: MIC): 1 µg/mL; MIC ([2]; Acinetobacter lactucae, isolate NO-Ab63, Acinetobacter dijkshoorniae, read-out: MIC): 1 µg/mL; MIC ([2]; Acinetobacter lactucae, isolate NO-Ab65, Acinetobacter dijkshoorniae, read-out: MIC): 1 µg/mL; MIC ([2]; Acinetobacter lactucae, isolate NO-Ab86, Acinetobacter dijkshoorniae, read-out: MIC): 1 µg/mL; MIC ([2]; Acinetobacter lactucae, isolate NO-Ab88, Acinetobacter dijkshoorniae, read-out: MIC): 0.5 µg/mL; MIC ([2]; Acinetobacter lactucae, isolate NO-Ab91, Acinetobacter dijkshoorniae, read-out: MIC): 1 µg/mL; MIC ([2]; Acinetobacter lactucae, isolate NO-Ab121, Acinetobacter dijkshoorniae, read-out: MIC): 2 µg/mL; MIC ([2]; Acinetobacter lactucae, isolate NO-Ab125, Acinetobacter dijkshoorniae, read-out: MIC): 1 µg/mL; MIC ([2]; Acinetobacter lactucae, isolate NO-Ab160, Acinetobacter dijkshoorniae, read-out: MIC): 0.5 µg/mL; MIC ([2]; Acinetobacter nosocomialis, isolate NO-Ab43, Acinetobacter nosocomialis, read-out: MIC): 2 µg/mL; MIC ([2]; Acinetobacter nosocomialis, isolate NO-Ab68, Acinetobacter nosocomialis, OXA-24/40, read-out: MIC): 1 µg/mL; MIC ([2]; Acinetobacter nosocomialis, isolate NO-Ab98, Acinetobacter nosocomialis, read-out: MIC): 2 µg/mL
